Laboratory results from patent publication US20140113014A1, “CHICORY FOR PREVENTION AND TREATMENT OF NEURODEGENERATION” (NESTEC S.A., priority 2011, published 2014).

Tested on: primary cortical neurons
Test: Primary cortical neuron aging model, neuronal survival by NeuN count
Format: cell-based, rat
Details: run in parallel with the chicory extract
Excerpt: A primary cortical culture system to study the effects of compounds on neuronal aging has been developed and applied to study the effects of chicory on neuronal survival. This cell culture system has been developed as a model of neuronal aging in order to mimic processes which occur during normal aging of neurons without a neurotoxic challenge. With this model beneficial effects against physiological neurodegeneration during aging can be studied and compounds which increase neuronal survival can be identified. This is a different approach from the models described in the prior art in which the cells are challenged with a neurotoxic insult in order to induce different degrees of neurodegeneration. Using immune-cytochemical analysis of the antigen, NeuN (Neuronal Nuclei), which is a sensitive marker of neurodegeneration, a reliable method for examining the lifespan of cortical neurons in culture has been established. The sensitivity of NeuN can be attributed to its steady reduction in expression intensity as neurons degenerate, which is in contrast to many antigens whose expression can distinguish only between living and dead neurons. Between four and six weeks after plating, the cortical neurons begin to degenerate, leading to a […] in NeuN count over this time (FIG. 1A). […] All tests were fixed at a time point between 6 and 8 weeks. […]

O=C(Nc1cccc([N+](=O)[O-])c1)c1cccc(S(=O)(=O)N2CCCCCC2)c1 [AK-1]
neuroprotective effect of the positive control relative to the chicory extract: smaller neuroprotective effect than the chicory extract
neuroprotective effect of the positive control versus non-treated cells: significantly positive over non-treated cells
